For test [1], the system named is myelin genes Mbp, Mog and Plp and transcription elements Sp1, Sox10 and Purα in OPCs. Kind of test: qPCR analysis of myelin gene expression in OPCs treated with AA. The class given is cell-based, rat. Particulars: AA 2.5 μM, 3 hours. As to the method: Mbp=myelin basic protein, Plp=proteolipoprotein, Mog=myelin oligodendrocyte glycoprotein.
The effect of AA on the expression of myelin genes, MBP, and IL-33 was examined. […] Natarajan et al., PLOS One, 11(3):e0152163 (2016); Sriram et al., Neurology, Abstract presented at the American Academy of Neurology, 2016 (2016). The studies were done in OPCs obtained from rat pups. OPCs were treated with AA (2.5 μM) for 3 hours and message levels were quantified using qPCR analysis. OPCs treated with AA induced the major myelin genes Mbp, Mog and Plp.
A general note: Real-time PCR tracks product formation cycle by cycle.

The test system of a further test is MBP in OPCs. Briefly: Western blot of MBP in OPCs cultured with AA for 10 days. Format: cell-based, rat. The method, then: To further verify the ability of AA to induce MBP protein synthesis, 4×10^6 OPCs were cultured in poly-D lysine coated culture dishes with and without AA for 10 days. The AA concentrations that were studied were as follows: 1, 2.5, 5, 7.5, and 10 μM. The growth medium was changed every three days. […] Upon culture in vitro, OPCs differentiated and became myelin expressing cells, a process which took about 7-14 days.
Background: In western blotting, separated proteins are transferred to a membrane and probed.

Another test concerns OPCs. Kind of test: Maturation of OPCs to mature oligodendrocytes, MBP staining after 14 days culture with AA. Format: cell-based, rat. The note with it: AA 1 μM. As to the method:
FIG. 6 provides images showing the increased differentiation of OPCs to mature oligodendrocytes following culture with AA (Ana). OPCs were isolated from rat pups and were cultured with AA where 1 μM of AA was added to the culture every other day for 14 days. At the end of the experiment, the cells were stained and the amount of MBP was assessed using ImagJ software.
The expression of MBP, a marker for myelin maturation in OPCs, was investigated in the presence and absence of AA (1 μM) following culture with AA for 14 days.

Test [2] has as its system experimental allergic encephalitis (EAE). Kind of test: EAE prevention, AA from day of immunization with MOG peptide. The class given is in vivo, mice. The source says:
In two experiments, only 2 of 10 mice in the AA treated group developed grade 1 paralysis. In the vehicle treated group, 9 out of 10 mice developed paralysis. Clinical scoring: 1=limp tail, 2=ataxia of gait and paralysis of one or more limbs, 3=paralysis of two or more limbs, 4=weakness of all limbs, 5=death.
The data is expressed as a percent area of myelin loss in three non-contiguous axial sections of the spinal cord; p<0.01 between treated and untreated groups when AA is given beginning day 0 or from the onset of symptoms.
Experimental allergic encephalitis (“EAE”) is an autoimmune inflammatory demyelinating disease of the CNS. For experimental purposes, the disease is induced in animals by immunizing the animals with myelin antigens in adjuvant. […] Ten to twelve days after immunization, paralysis develops in the animals. The degree of paralysis is scored as follows: 1=limp tail, 2=ataxia of gait and paralysis of one or more limbs, 3=paralysis of two or more limbs, 4=weakness of all limbs, 5=death.
The EAE model has been used extensively to examine the efficacy of potential drugs for MS therapy. The efficacy of AA in preventing EAE in mice immunized with MOG peptide in adjuvant was tested. A total of 10 mice were administered 0.25 mg/kg of AA dissolved in DMSO (vehicle) and a total of 10 mice were administered the vehicle alone by intraperitoneal injection daily for the entire length of the study (28 days). AA was obtained from commercial sources. Nine of 10 animals in the vehicle group developed paralytic signs, with a mean maximal paralytic score of 2.66. Two of 10 animals that received AA developed paralysis which was scored as a grade 1 paralysis (P<0.01 treated versus placebo). There was also significant decrease in the loss of myelin in the […]. (FIG. 13).
To confirm that the clinical scores calculated in the EAR experiments reflect pathology, the extent of demyelination in the cervical, thoracolumbar cord of each mouse in the vehicle treated and AA treated groups was examined. […]

With `CCCCCCCCCCCCCCCc1cccc(O)c1C(=O)O` [AA, anacardic acid], in test [1], the “expression of major myelin genes Mbp, Mog and Plp (message levels, qPCR)” value is on record as “induced”; the “expression of transcription elements Sp1, Sox10 and Purα that bind the Mbp promoter (qPCR)” value is listed as “upregulation”. In the test with MBP in OPCs (OPCs cultured with AA, concentration not given), the “increase in the expression of MBP (image analysis, FIG. 4)” value was determined as 2.4 fold. Moreover, the “level of MBP (Western blot)” value in the test on MBP in OPCs (OPCs, AA 1, 2.5, 5, 7.5 and 10 μM, 10 days) is listed as “increased the level of MBP in a dose dependent manner”. In addition, the “increase in the expression of MBP vs normal growth medium” value with OPCs is 2.1 fold. The “demyelination in the spinal cord” value in test [2] (AA 0.25 mg/kg daily from day 0, vehicle 9.9+/−4.0 percent) is “no demyelination”. The “animals that developed paralysis” value in test [2] (AA 0.25 mg/kg ip daily for 28 days from immunization, vehicle nine of 10, P<0.01) was 2 of 10 and Two of 10. In addition, the “grade of paralysis (clinical score 1-5)” value in test [2] (AA 0.25 mg/kg ip daily from immunization, affected animals) is 1.

For the origin of these results see patent US12083134B2, “Anacardic acid for neural repair” (Vanderbilt University, priority 2018, dated 2024).
